In publication PMC4834588 (British Journal of Clinical Pharmacology, 2016):
Like-named read-outs stand apart in the source and are kept apart here. Marks after values point to notes of the source that are not given here. Numbered stars: 1 amine (or outer) side, 2 acyl side, 3 side chain; on linkers, the order of the positions; unused ones are H or OH. Bridge positions count the residues as written; N and C are the ends. Square brackets hold non-standard residues; d marks the D form. Peptide text beside a SMILES is read from it. I, II: the chains in the order shown. Actinocin(9to1) = Cc1c2oc3c(C)ccc(C(=O)[*:1])c3nc-2c(C(=O)[*:2])c(N)c1=O; NMeV = CN[C@H](C(=O)O)C(C)C; Sar = CNCC(=O)O

Assays:
[1] = parameters: method as in http://www.drugbank.ca/drugs/DB00970; details: PBPK compound file input; ref http://www.drugbank.ca/drugs/DB00970; cited from earlier work
physchem = assay: physchem
Text: The method for the generation of Log P values by high performance liquid chromatography (HPLC) was adapted from that described by Zhao et al. 22. Briefly, Log P correlates with the retention time of a compound by a solid phase C18 column. […] By using compounds with known Log P values, a standard curve can be determined and the Log P of a compound of interest obtained by interpolation. A Waters HPLC system, linked to an Agilent fluorescence detector, was used along with a Luna 5 μ C18 50 × 2.0 mm HPLC column preceded by a guard column (Phenomenex, Macclesfield, UK). […] The sample holder for the HPLC was set at 25 °C in order to prevent freezing of the DMSO during the run. The mobile phase consisted of deionized water and acetonitrile with a constant gradient of 40–60%, respectively.
Prior to each run the column was equilibrated to the running conditions for 10 minutes, with the flow rate set to 0.5 ml min^−1. A 20‐μl aliquot of each sample was injected into the column and its retention time measured relative to that of the sodium nitrate peak. Peaks were analysed using Empower software (Waters, Wilmslow, UK).

[2] = parameters: method as in PMID 15143082; details: cited from earlier work
[3] = cited from earlier work
[4] = PBPK modelling and simulation (Simcyp version 14 release 1); parameters: species or system human; details: PBPK compound file input; determined from chemical structure
Procedure: Modelling and simulation were performed using Simcyp version 14 release 1 (Simcyp Ltd, a Certara company, Sheffield, UK). The compound file for Act D was compiled using data generated in the methods described above and with additional inputs from web databases and literature sources as shown in Table 2. The Simcyp software provides a framework for assessing the PK of a drug by defining certain characteristics within a compound file. Using this compound file, pharmacokinetic data can then be simulated in individuals of a virtual population of interest, allowing for the impact of inter‐individual differences to be assessed 17, 18.
For the simulation of clinical trial data, information was taken from previous work by Hill et al., who studied 117 patients administered Act D intravenously 8. The population was split into three age categories: 1–<6 (n = 67), 6–<10 (n = 11) and 10–20 years (n = 39). These age bins were further subdivided based on the dose of Act D received (Table 1). […]
The Simcyp simulations output the mean and the 5th and 95th percentile for the concentration−time profile as well as the calculated mean, median and geometric mean of the simulated population. […] In addition, the mean fold‐prediction of AUC against observed data was determined; a two‐fold under‐ or over‐prediction was considered a reasonable prediction and within 1.5‐fold a good prediction. […]

[5] = cited from earlier work; remark: listed apart in the source
[6] = Blood:plasma partitioning in whole blood from a healthy donor; type: in vitro ADME; details: human
Procedure: All experiments were performed in triplicate. An aliquot of 180 μl whole blood from a healthy donor was added to 20 μL of each Act D solution (final concentrations 0.4, 2 and 10 μg ml^−1) in Eppendorf tubes, followed by gentle rotation for 1 min before transfer to an incubator (Infors HT Multitron Standard, Infors AG, Basel) at 37 °C for 1 h and 40 μl of plasma was transferred to a new Eppendorf and mixed with 40 μl of fresh blood.
For the blood samples, 40 μl of blood was transferred to a new Eppendorf and mixed with 40 μl blank plasma. All samples were then mixed with 160 μl of the extraction solution and frozen at −80 °C for 1 h. Samples were then centrifuged at 2000 g and 4 °C for 1 h and 100 μl of supernatant from each sample was transferred to HPLC vials and stored at −20 °C overnight. LC–MS analysis was performed as described above for the analysis of transporter kinetic samples. The blood‐to‐plasma ratio was calculated from the following equation (where Kb/p is the whole blood‐to‐plasma partition coefficient, Ke/p is the red blood cell‐to‐plasma partition and H is the haematocrit): (1) Blood‐to‐plasmaKb/p=Ke/p×H+1−H

ABCB1 (MDR1) = ABCB1 (MDR1) (Homo sapiens, UniProt P08183); details: basal to apical, 0.1-100 μM Act D, 1 h, MDCKII-MDR1 minus MDCKII-WT
Sequence of ABCB1 (MDR1) (P08183 whole entry): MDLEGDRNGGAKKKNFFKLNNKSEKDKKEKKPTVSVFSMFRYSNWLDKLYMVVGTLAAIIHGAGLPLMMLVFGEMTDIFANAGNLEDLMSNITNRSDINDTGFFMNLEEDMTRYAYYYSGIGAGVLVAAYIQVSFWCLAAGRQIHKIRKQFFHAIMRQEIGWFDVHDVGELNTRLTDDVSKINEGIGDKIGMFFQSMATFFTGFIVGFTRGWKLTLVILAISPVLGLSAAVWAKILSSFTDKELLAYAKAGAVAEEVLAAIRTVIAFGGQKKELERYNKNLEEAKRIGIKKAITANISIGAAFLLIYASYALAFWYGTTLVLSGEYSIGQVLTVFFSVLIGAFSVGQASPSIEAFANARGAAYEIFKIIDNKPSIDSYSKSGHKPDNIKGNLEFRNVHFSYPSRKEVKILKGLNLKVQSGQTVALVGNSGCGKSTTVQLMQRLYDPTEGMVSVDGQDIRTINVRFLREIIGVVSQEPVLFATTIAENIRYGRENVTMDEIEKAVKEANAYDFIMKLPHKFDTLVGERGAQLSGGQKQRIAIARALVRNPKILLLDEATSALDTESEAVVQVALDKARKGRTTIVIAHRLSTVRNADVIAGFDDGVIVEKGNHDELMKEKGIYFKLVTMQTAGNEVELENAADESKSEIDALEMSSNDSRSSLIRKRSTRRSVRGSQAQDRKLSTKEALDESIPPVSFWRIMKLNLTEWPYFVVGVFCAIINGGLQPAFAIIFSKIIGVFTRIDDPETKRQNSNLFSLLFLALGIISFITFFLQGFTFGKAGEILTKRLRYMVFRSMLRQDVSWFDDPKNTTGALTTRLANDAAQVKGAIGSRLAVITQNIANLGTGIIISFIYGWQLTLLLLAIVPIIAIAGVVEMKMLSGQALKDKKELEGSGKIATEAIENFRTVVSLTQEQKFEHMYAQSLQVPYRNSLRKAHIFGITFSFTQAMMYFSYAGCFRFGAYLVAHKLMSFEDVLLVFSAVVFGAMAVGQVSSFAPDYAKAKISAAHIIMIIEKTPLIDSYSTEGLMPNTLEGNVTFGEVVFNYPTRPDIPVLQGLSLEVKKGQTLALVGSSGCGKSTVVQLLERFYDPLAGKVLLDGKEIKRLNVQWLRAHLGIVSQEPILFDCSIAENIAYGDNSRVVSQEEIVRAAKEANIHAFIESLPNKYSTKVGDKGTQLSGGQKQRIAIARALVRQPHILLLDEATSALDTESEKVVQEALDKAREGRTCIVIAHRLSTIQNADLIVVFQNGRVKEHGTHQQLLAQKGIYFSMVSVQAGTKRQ
Procedure: Polarized Madin‐Darby canine kidney (MDCKII) cell line wild‐type and cells transfected with ABCB1 (MDR1) were obtained from Dr. A.H. Schinkel (Amsterdam, the Netherlands).
For drug transport experiments, 12‐mm Corning Transwell polycarbonate membrane cell culture inserts with 0.4‐μm pores were used (Sigma Aldrich, UK). Cells (passage 8–12) were seeded at 1.4 × 10^4 cells ml^−1 in growth medium and grown on filter for 5 days before the experiment was performed, with medium being changed every 24 hours. […] Growth medium was aspirated from both the apical and basal compartments, and the cells were washed twice with pre‐warmed phosphate‐buffered saline adjusted to pH 7.4. […] Lucifer yellow (60 μM) was added as a paracellular control to test for the formation of a fully confluent monolayer. A limit of 2% Lucifer yellow movement was set as the cutoff with the results for any wells exceeding that threshold being rejected.
The rate of efflux (μM min^−1/10^6 cells) due to MDR1 was determined by subtracting the rate of flux seen across the MDCKII‐WT cells from the flux across the MDCKII‐MDR1 cells.

Cc1c2oc3c(C)ccc(C(=O)N[C@@H]4C(=O)N[C@H](C(C)C)C(=O)N5CCC[C@H]5C(=O)N(C)CC(=O)N(C)[C@@H](C(C)C)C(=O)O[C@@H]4C)c3nc-2c(C(=O)N[C@@H]2C(=O)N[C@H](C(C)C)C(=O)N3CCC[C@H]3C(=O)N(C)CC(=O)N(C)[C@@H](C(C)C)C(=O)O[C@@H]2C)c(N)c1=O [Act D, Actinomycin D] (I: T[dV]P[Sar][NMeV] / II: T[dV]P[Sar][NMeV]; ester I:1-I:C, II:1-II:C; linker I:N-II:N via Actinocin(9to1))
Fraction unbound [1]: 0.95 | Experimental Log P (physchem): 4.77 | chromatographic logP (physchem): 4.47 | Likelihood of developing SOS ([2]; patients over three years of age): 4% | Chance of developing SOS ([2]; patients under three years of age): 15% | CL Renal ([3]; PBPK input, CV of 60% used, ref Tattersall et al. 5): 1.8 (l h^−1) ^* | Administered dose eliminated in the urine and faeces ([3]; after nine days): approximately 35% | Compound type [4]: Neutral | Mean observed AUC ± SD (AUC0-26h) ([5]; age 1–<6 years, dose 0.60 mg m^−2 IV): 82 ± 18 ng·h/mL | Mean observed AUC ± SD (AUC0-26h) ([5]; age 1–<6 years, dose 0.76 mg m^−2 IV): 63 ± 8 ng·h/mL | Mean observed AUC ± SD (AUC0-26h) ([5]; age 1–<6 years, dose 1.01 mg m^−2 IV): 71 ± 33 ng·h/mL | Mean observed AUC ± SD (AUC0-26h) ([5]; age 1–<6 years, dose 1.12 mg m^−2 IV): 82 ± 16 ng·h/mL | Mean observed AUC ± SD (AUC0-26h) ([5]; age 1–<6 years, dose 1.48 mg m^−2 IV): 111 ± 16 ng·h/mL | Mean observed AUC ± SD (AUC0-26h) ([5]; age 1–<6 years, dose 1.55 mg m^−2 IV): 128 ± 51 ng·h/mL | Mean observed AUC ± SD (AUC0-26h) ([5]; age 6–<10 years, dose 0.77 mg m^−2 IV): 80 ± 28 ng·h/mL | Mean observed AUC ± SD (AUC0-26h) ([5]; age 6–<10 years, dose 1.50 mg m^−2 IV): 130 ± 12 ng·h/mL | Mean observed AUC ± SD (AUC0-26h) ([5]; age 10–20 years, dose 0.74 mg m^−2 IV): 45 ± 8 ng·h/mL | Mean observed AUC ± SD (AUC0-26h) ([5]; age 10–20 years, dose 1.04 mg m^−2 IV): 50 ± 12 ng·h/mL | Mean observed AUC ± SD (AUC0-26h) ([5]; age 10–20 years, dose 1.48 mg m^−2 IV): 120 ± 44 ng·h/mL | Mean AUC0-26h observed ([5]; observed in patients (abstract)): 93 ng·h/mL | blood plasma ratio at 1 h ([6]; 37 °C, 1 h, 95% confidence interval 0.03, read-out: Mean blood-to-plasma ratio): 0.62 | blood plasma ratio at 1 h ([6]; whole blood spiked with 0.2 to 10 μg ml^−1, read-out: Blood-to-plasma ratios (range observed)): 0.59 to 0.65 | Maximum rate of flux (J max) (ABCB1 (MDR1)): 1142 μM min^−1/10^6 cells | Michaelis–Menten constant (K m) (ABCB1 (MDR1)): 20 µM

C[C@@H]1C[C@H]2[C@@H]3CCC4=CC(=O)C=C[C@]4(C)[C@@]3(F)[C@@H](O)C[C@]2(C)[C@@]1(O)C(=O)CO [Dexamethasone]
chromatographic logP (physchem; reversed-phase C18 HPLC column (Luna 5 µ C18 50 × 2.0 mm)): 1.8
